Laboratory results reported in patent US20260240842A1, “METHODS TO PREVENT THERAPY RESISTANCE IN MELANOMA VIA BLOCKING GENOMIC INSTABILITY” (THE REGENTS OF THE UNIVERSITY OF CALIFORNIA, priority 2022, published 2026).

Tested on: p-DNA-PKcs (S2056)
Assay: Immunofluorescence of p-DNA-PKcs (S2056) nuclear foci in early on-treatment PDX tumors
Type: in vivo, NSG mice
Details: with or without MEKi; Mel_PDX1, 11 days; FIG. 13F
Excerpt: FIGS. 13A-13H. In vivo impacts of DNA-PKi when combined with MAPKi. FIGS. 13A and 13B: Long-term follow-up of tumor volumes (13A, BRAFi+MEKi, n=5 tumors; BRAFi+MEKi+DNA-PKi, n=6 tumors) (13B, MEKi, n=6 tumors; MEKi+DNAP-PKi, n=6 tumors) and average mice body weights for 13A and 13B. Related to experiments in FIGS. 7B and 7E, respectively. FIGS. 13C and 13D, Tumor volumes (mean±SEM) of two examples of tumor models treated short-term with vehicle or indicated single versus combined agents. Inhibitors and dosages are identical to those in FIGS. 7C and 7E, respectively. The numbers of tumors and their sizes are shown in the photographs (right) taken at the times of tumor harvest (end points). FIGS. 13E to 13G: Immunofluorescence of p-ERK (13E), p-DNA-PKcs (S2056) (13F), or γH2AX (13G) levels in Mel_PDX1 tumor model, treated with vehicle or indicated single versus combined agents for 11 days (shown in 13C). DAPI, nuclear stain. Scale bar, 50 μm (13E) and 20 μm (13F and 13G). Representative images shown for two tumors analyzed per group. Quantification of p-DNA-PKcs signals obtained by taking the average of positively stained foci per nucleus (13F, representative of 4 fields). Quantification of γH2AX signals analyzed either by percentage of cells with γH2AX foci or percentage of cells with greater than 5 γH2AX foci (13G, representative of 4 fields). […]

Compound: O=c1cc(N2CCOCC2)oc2c1ccc1ccccc12 [NU7026]
- nuclear p-DNA-PKCS foci: suppressed nuclear p-DNA-PKCS foci
